{
  "source": "patent US9522121B2",
  "about": "“Aqueous-core lipid nanocapsules for encapsulating hydrophilic and/or lipophilic molecules” (UNIVERSITE D'ANGERS, priority 2007, dated 2016)",
  "key": {"[1]": {"assay": "Encapsulation yield, indirect quantification in external water after centrifugation", "assay_type": "physicochemical", "conditions": "for encapsulation yield (plateau): hydrophilic molecule in aqueous core, tp = 2 h, highest monomer (TDI) contents", "text": "(i) Hydrophilic materials, eventually, have to be shared out into the w/o nanoemulsions water droplets, and it may be done right from the start included in the water phase of the macro-emulsions preparations. Another higher effective manner consists in injecting a very small volume (no more than 2% (v./v.)) of very concentrated aqueous solution, in the microemulsion maintained at the PIT, after the temperature cycling, and before the isopentane dilution. The droplet injected in the (still) stirred microemulsion, very rapidly integrates the aqueous part of the bicontinuous network. As a result of the oil dilution, the nanoemulsion immediately forms, allowing a very homogeneous dispersion in oil of the injected hydrophilic molecule. Incorporating the hydrophilic species through this original manner, eventually prevents the molecules degradation during processing potentially due to the temperature cycling treatment. The hydrophilic model molecules were chosen with very different molecular weight: The first one is a labile dye, methylene blue (MB), the second is a protein, the bovin serum albumin fluorecein isothiocyanate labeled (BSA-FITC) and the last one is a fluorescent compound, Doxorubicin Chlorhydrate (DOX), which is an anti-cancer drug.\n(ii) On the other hand, the lipophilic species were introduced in the oil phase of the nanoemulsion, after the chosen time of polymerization (to maximally prevent the potential interactions with the monomer), and before the stage of isopentane evaporation. Thereby, after the complete isopentane evaporation, the lipophilic added materials will be equally shared onto the droplets enclosed in the residual mineral oil, that is, trapped in the amorphous oil/non-ionic surfactant matrix. It finally appears as a marker of the residual mineral oil location, and determining a significant encapsulation yield should support the proposed multi-functional water/oil structure. […] It is important to note here, that these processes of nanocapsule formulation containing hydrophilic and lipophilic agents can be still considered as only involving a low quantity of energy (often called ‘low-energy’ methods). […]\nAll the quantifications were performed following an indirect method, after separating the external water to the nanocapsules by centrifugation (30 min, 14500 rpm), it was freeze-dried (RP2V, SGD, Le Coudray Saint-Germer, France) to ensure the destruction of the potentially remaining nanocapsules (and also to prevent their additional light adsorption in the quantification process). Next, the freeze-dried samples are solubilized in dichloromethane (DCM), and the different incorporated molecules except DOX which are present in the external water are simply quantified using a Spectrophotometer UV-visible Uvikon 922 Spectrophotometer (Bio-Tek Koutron instruments, Saint-Quentin-en-Yvelines, France). DOX was quantified using a spectrofluorimeter (Fluoroskan Ascent FL, type 374, Thermo Electron Corporation, Finland). […]\nOwing to the real challenge that constitutes the encapsulation of hydrophilic agent into nanocapsules themselves dispersed in aqueous continuous phase, the first result will concern the extent in which the selected hydrophilic species, methylene blue and BSA-FITC, can be encapsulated into such colloids. The molecules incorporation during the nanoemulsion generation step as well as the molecule quantification for determining the encapsulation yield, follow the above-described procedures. […]"}, "[2]": {"tested_on": "NIH/3T3 cells", "assay": "Cytotoxicity of particles (P) without active ingredient, cell survival by MTT test", "assay_type": "cell-based, Mus musculus", "parameters": "unit: % of control", "conditions": "DMSO, control = 100.00", "procedure": "The cytotoxicity of particles (P) prepared according to 1.2 hereabove—without any active ingredient encapsulated (hereafter called NCB)—was assessed on NIH/3T3 cells (fibroblasts of mice Mus musculus). The […] were exposed to various particle concentrations, during 4, 24, 48 or 72 hours. The cell survival was determined by the MTT test."}, "[3]": {"assay": "Doxorubicin release kinetics from particles (P), dialysis against PBS", "assay_type": "physicochemical", "conditions": "DOX-loaded particles (P), dialysis 15 kDa membrane, PBS pH 7.4, 37° C.", "quoted_text": "To establish the drug release kinetics (see FIG. 8), 2 mL of freshly prepared suspension containing DOX-loaded particle (P), enclosed into a dialysis 15 kDa membrane (Spectra/Por® Membranes, Fisher Bioblock Scientific, Illkirch, France), were added to 40 mL of phosphate buffered saline (PBS, pH 7.4) from Sigma. The flack was weakly mechanically stirred (125 rpm) in darkness, at 37° C. (in a boiler, Julabo SW22, JULABO Labortechnik GmbH, Seelbach, Germany). Next, 500 μL of release medium were collected at specified time points and the DOX concentrations were determined by spectrofluorimetry, as previously described. This collected volume was systematically replaced by the same volume of fresh PBS for insuring the “sink” experimental conditions."}},
  "data": [
    {"molecule": "Oc1ccc2ccccc2c1N=Nc1ccc(N=Nc2ccccc2)cc1", "note": "[RS, red Soudan III]", "values": [
      {"measurement": "encapsulation yield", "setting": "[1]; lipophilic molecule in oil shell, simultaneously encapsulated with MB, tp 2 hours, no influence of monomer amount", "result": "around 0.92"}
    ]},
    {"molecule": "CN(C)c1ccc2nc3ccc(=[N+](C)C)cc-3sc2c1", "note": "[MB, Methylene Blue]", "values": [
      {"measurement": "encapsulation yield (plateau)", "setting": "[1]", "result": "about 0.9"}
    ]},
    {"molecule": "C[S+](C)[O-]", "note": "[DMSO]", "values": [
      {"measurement": "cell survival (MTT test), mean", "setting": "[2]; 4 H exposure", "result": 46.75},
      {"measurement": "cell survival (MTT test), mean", "setting": "[2]; 24 H exposure", "result": 10.22},
      {"measurement": "cell survival (MTT test), mean", "setting": "[2]; 48 H exposure", "result": 4.79},
      {"measurement": "cell survival (MTT test), mean", "setting": "[2]; 72 H exposure", "result": 5.00}
    ]},
    {"molecule": "COc1cccc2c1C(=O)c1c(O)c3c(c(O)c1C2=O)C[C@@](O)(C(=O)CO)C[C@@H]3O[C@H]1C[C@H](N)[C@H](O)[C@H](C)O1", "note": "[DOX, Doxorubicin Chlorhydrate]", "values": [
      {"measurement": "yield of encapsulated doxorubicin", "setting": "[1]; in aqueous droplets (no monomer)", "result": 30, "unit": "%"},
      {"measurement": "yield of encapsulated doxorubicin", "setting": "[1]; in polymeric nanocapsules (interfacial polymerization with tolylene 2,4-diisocyanate)", "result": 70, "unit": "%"},
      {"measurement": "release with time (maximum given by the curve fit)", "setting": "[3]", "result": "~100", "unit": "%"}
    ]},
    {"molecule": "Bovine Serum Albumin-Fluorescein Isothiocyanate labeled [BSA-FITC]", "values": [
      {"measurement": "encapsulation yield (plateau)", "setting": "[1]", "result": "about 0.9"}
    ]}
  ]
}
